Measurements published in patent US10689365B2, “Substituted 2-alkylimidazolylcarboxamides as pesticides” (Bayer CropScience Aktiengesellschaft, priority 2016, dated 2020).
Read-outs that look alike come from different tables or passages of the source.

Columns and labels:
Aphis gossypii = Aphis gossypii - spray test (APHIGO S), cotton plants; assay type: in vivo; details: 144 h, 6 dat, read-out: % efficacy
Protocol: Aphis gossypii—Spray Test (APHIGO S)
(§1) Solvent: 14 parts by weight of dimethylformamide
(§2) Emulsifier: alkylaryl polyglycol ether
(§3) To produce a suitable active compound preparation, 1 part by weight of active compound is dissolved using the stated parts by weight of solvent and made up with water containing an emulsifier concentration of 1000 ppm until the desired concentration is attained. To produce further test concentrations, the formulation is diluted with emulsifier-containing water. If the addition of ammonium salts or/and penetrants is required, these are each added in a concentration of 1000 ppm to the formulation solution.
Cotton plants (Gossypium hirsutum) heavily infested by the cotton aphid (Aphis gossypii) are sprayed with an active ingredient formulation of the desired concentration.
After the desired time, the kill in % is determined. 100% means that all the aphids have been killed; 0% means that no aphids have been killed.

Myzus persicae [1] = assay: Myzus persicae - spray test (Chinese cabbage leaf discs); assay type: in vivo; details: Myzus persicae, foliar; application rate 500 g/ha, after 5-6 days; read-out: efficacy
Protocol: Myzus persicae—Spray Test
Solvent: 78 parts by weight of acetone • • 1.5 parts by weight of dimethylformamide
as §2
as §3, with “water.” for “water. If the addition of ammonium salts or/and penetrants is required, these are each added in a concentration of 1000 ppm to the formulation solution.”
Discs of Chinese cabbage leaves (Brassica pekinensis) infested by all stages of the green peach aphid (Myzus persicae) are sprayed with an active ingredient formulation of the desired concentration.
After 5-6 days, the efficacy in % is determined. 100% means that all the aphids have been killed; 0% means that no aphids have been killed.

Myzus persicae [2] = assay: Myzus persicae - drench test (MYZUPE D), Savoy cabbage in soil; assay type: in vivo; details: 240 h, 10 dat, read-out: % efficacy
Protocol: Myzus persicae—Drench Test (MYZUPE D)
To produce a suitable active compound preparation, 1 part by weight of active compound is mixed with the specified amounts of solvent and emulsifier, and the concentrate is diluted with water to the desired concentration, it being necessary to include the volume of soil which is drenched in the calculation. It should be ensured that a concentration of 40 ppm of emulsifier in the soil is not exceeded. To produce further test concentrations, water is used for dilution.
Savoy cabbage (Brassica oleracea) in pots with soil and infested by all stages of the green peach aphid (Myzus persicae) is watered with an active compound preparation of the desired concentration.
(§4) After the desired period of time, the efficacy in % is determined. 100% means that all the aphids have been killed; 0% means that no aphids have been killed.

[3] = log P by HPLC on reversed-phase (C18) columns, OECD Guideline 117; assay type: physicochemical; details: reversed-phase (C18) HPLC column
Protocol: The log P values were determined in accordance with OECD Guideline 117 (EC Directive 92/69/EEC) by HPLC (high-performance liquid chromatography) using reversed-phase (RP) columns (C18), by the following methods:
[a] The LC-MS determination in the acidic range was carried out at pH 2.7 with 0.1% aqueous formic acid and acetonitrile (contains 0.1% formic acid) as mobile phases; linear gradient from 10% acetonitrile to 95% acetonitrile.
[b] LC-MS determination in the neutral range was carried out at pH 7.8 with 0.001 molar aqueous ammonium hydrogencarbonate solution and acetonitrile as mobile phases; linear gradient from 10% acetonitrile to 95% acetonitrile.

Myzus persicae [4] = assay: Myzus persicae - spray test (MYZUPE S), bell pepper plants; assay type: in vivo; details: 144 h, 6 dat, read-out: % efficacy
Protocol: Myzus persicae—Spray Test (MYZUPE S)
as §1, §2
as §3, with “with” for “using”, “specified” for “stated”
Bell pepper plants (Capsicum annuum) severely infested with the green peach aphid (Myzus persicae) are treated by spraying with the active ingredient formulation in the desired concentration.
After the desired time, the kill in % is determined. 100% means that all the animals have been killed; 0% means that no animals have been killed.

Myzus persicae [5] = assay: Myzus persicae - spray test (MYZUPE), Chinese cabbage leaf discs; assay type: in vivo; details: foliar, 120 h, 5 dat; for percent efficacy (aphid mortality) at 100 g/ha: 100 g of ai/ha
Protocol: Myzus persicae—Spray Test (MYZUPE)
Solvent: 78.0 parts by weight of acetone • • 1.5 parts by weight of dimethylformamide
as §2
as §3, with “water.” for “water. If the addition of ammonium salts or/and penetrants is required, these are each added in a concentration of 1000 ppm to the formulation solution.”
Discs of Chinese cabbage leaves (Brassica pekinensis) infested by all stages of the green peach aphid (Myzus persicae) are sprayed with an active compound preparation of the desired concentration.
as §4

Myzus persicae [6] = assay: Myzus persicae - oral test; assay type: in vivo; details: Myzus persicae, po, 120 h; application rate 20 ppm, after 5 days; read-out: efficacy
Protocol: (§5) Solvent: 100 parts by weight of acetone
(§6) To produce a suitable preparation of active compound, 1 part by weight of active compound is dissolved using the specified parts by weight of solvent and made up with water until the desired concentration is attained.
(§7) 50 μl of the active compound preparation are transferred into microtitre plates and made up to a final volume of 200 μl with 150 μl of IPL41 insect medium (33%+15% sugar). Subsequently, the plates are sealed with parafilm, which a mixed population of green peach aphids (Myzus persicae) within a second microtitre plate is able to puncture and imbibe the solution through it.
After 5 days, the efficacy in % is determined. 100% means that all the aphids have been killed; 0% means that no aphids have been killed.

Myzus persicae [7] = assay: Myzus persicae - oral test (MYZUPE O); assay type: in vivo; details: 120 h, 5 dat, read-out: % efficacy
Protocol: Myzus persicae—Oral Test (MYZUPE O)
as §5, §6, §7, §4

[8] = acidic range, pH 2.7, 0.1% aqueous formic acid/acetonitrile, read-out: logP[a]
[9] = neutral range, pH 7.8, aqueous ammonium hydrogencarbonate/acetonitrile, read-out: logP[n]

Row | Structure (SMILES) | chromatographic logP [3, 8] | chromatographic logP [3, 9] | Emax at 0.8 ppm (Aphis gossypii) [%] | Emax at 4 ppm (Aphis gossypii) [%] | pest or weed control at 500 g/ha (Myzus persicae [1]) [%] | Emax at 0.16 ppm (Myzus persicae [2]) [%] | Emax at 0.16 ppm (Myzus persicae [4]) [%] | percent efficacy (aphid mortality) at 20 g/ha (Myzus persicae [5]; 20 g of ai/ha) [%] | percent efficacy (aphid mortality) at 100 g/ha (Myzus persicae [5]) [%] | pest or weed control at 20 ppm (Myzus persicae [6]) [%] | Emax at 4 ppm (Myzus persicae [7]) [%] | Emax at 20 g/ha (Myzus persicae [5]; 20 g of ai/ha, read-out: % efficacy) [%]
1 | CSCc1ncc(C(=O)N(C)c2cccnc2)n1C [Example I-1-26] | -0.04 | 0.98 | 30 | 98 | 100 | 90 | 95 | 90 | 90 | 100 | 100 | –
2 | CCS(=O)(=O)Cc1ncc(C(=O)N(C)c2cccnc2)n1C [Example I-1-28] | 0.35 | 0.65 | 98 | 100 | 100 | 95 | 95 | – | 90 | 100 | 100 | 100
3 | CC(C)SCc1ncc(C(=O)N(C)c2cccnc2)n1C [Example I-1-29, 2-[(Isopropylsulphanyl)methyl]-N,1-dimethyl-N-(pyridin-3-yl)-1H-imidazole-5-carboxamide] | 0.76 | 1.5 | 98 | 100 | 90 | 98 | 99 | – | 90 | 100 | 100 | –
4 | CC(C)S(=O)(=O)Cc1ncc(C(=O)N(C)c2cccnc2)n1C [Example I-1-30, 2-[(Isopropylsulphonyl)methyl]-N,1-dimethyl-N-(pyridin-3-yl)-1H-imidazole-5-carboxamide] | 0.56 | 0.88 | 100 | 100 | 90 | 98 | 98 | 90 | 90 | 100 | 100 | –

Continued, in another order:

Row | chromatographic logP [3, 8] | chromatographic logP [3, 9] | Structure (SMILES) | Emax at 0.8 ppm (Aphis gossypii) [%] | Emax at 4 ppm (Aphis gossypii) [%] | pest or weed control at 500 g/ha (Myzus persicae [1]) [%] | Emax at 0.16 ppm (Myzus persicae [2]) [%] | Emax at 0.16 ppm (Myzus persicae [4]) [%] | percent efficacy (aphid mortality) at 20 g/ha (Myzus persicae [5]; 20 g of ai/ha) [%] | percent efficacy (aphid mortality) at 100 g/ha (Myzus persicae [5]) [%] | pest or weed control at 20 ppm (Myzus persicae [6]) [%] | Emax at 4 ppm (Myzus persicae [7]) [%] | Emax at 20 g/ha (Myzus persicae [5]; 20 g of ai/ha, read-out: % efficacy) [%]
5 | 1.18 | 1.84 | CC(C)CSCc1ncc(C(=O)N(C)c2cccnc2)n1C [Example I-1-31, 2-[(isobutylsulphanyl)methyl]-N,1-dimethyl-N-(pyridin-3-yl)-1H-imidazole-5-carboxamide] | 100 | 100 | 100 | 95 | 99 | 90 | 90 | 100 | 100 | –
6 | 1.05 | 1.26 | CC(C)CS(=O)(=O)Cc1ncc(C(=O)N(C)c2cccnc2)n1C [Example I-1-32] | 98 | 97 | 90 | 98 | 98 | – | 70 | 100 | 100 | –
7 | 0.75 | 1.03 | CN(C(=O)c1cnc(CS(=O)(=O)C(C)(C)C)n1C)c1cccnc1 [Example I-1-34] | 85 | 95 | 100 | 90 | 45 | 90 | 90 | 100 | 100 | –
